Data on one compound can be found in US10358416B2, “Substituted pyrrolidines as G-protein coupled receptor 43 agonists” (Ogeda SA, priority 2009, dated 2019).

This assay has as its system ob/ob mice. Description: Oral glucose tolerance test (OGTT) in ob/ob mice. In kind it is in vivo. As to conditions: bi-daily 50 mg/kg during 28 days, AUC from -15 to 120 min. The method, then: Ob/ob or obese mice are leptin-deficient mice that eat excessively and become profoundly obese, hyperinsulinemic and hyperglycemic. It is an animal model of type II diabetes. Such model can be used for oral glucose tolerance tests (OGTTs). A total of sixteen (16) male ob/ob mice (6 weeks of age) were obtained from Harlan. Upon arrival to the animal unit, mice were housed 4 per cage in rodent cages mounted with feeders containing regular chow. The mice were put in a 12/12h light-dark cycle (light from 0600-1800 h) with controlled temperature conditions (22-24° C.). Fed blood glucose and body-weight was measured on day −2 in the morning between 08:00 AM and 09:00 AM. Animals were randomized into 2 groups according to fed glucose levels (on day −2). […]
Day 1 is the first day of dosing. […] At −15 min, blood glucose was measured (using a glucose analyzer) and animals were dosed with compounds of the invention or vehicle. At time point 0, blood glucose was measured again and glucose was administered by oral gavage (1 g/kg glucose). The blood glucose was then measured at time points 15, 30, 45, 60 and 120 minutes. […] The percentages of AUC inhibition induced by compounds of the invention were calculated as follows: % of AUC inhibition: [1−(AUC compound/AUC vehicle)]*100.

For the compound `COc1ccccc1-c1ccc(C(=O)N2[C@@H](c3ccccc3Cl)CC[C@H]2C(=O)O)cc1` [Compound 1, (2S,5R)-5-(2-chlorophenyl)-1-(2′-methoxy-[1,1′-biphenyl]-4-carbonyl)pyrrolidine-2-carboxylic acid], the “% of AUC inhibition (blood glucose AUC, OGTT)” value came out at 40%.
